The supplement of paper PMC13380429

What was measured:
Settings in all cases: 72 h
Calu-3 [1] = test: relative viability EC50 (midpoint between 100% and the lowest measured viability); higher = less toxic
HepG2 [2] = test: as above
Calu-3 [3] = test: cell viability relative to DMSO; higher = less toxic
HepG2 [4] = test: as above
Vero E6 [5] = test: as above
U2OS [6] = test: as above
Caco-2 [7] = test: as above
Calu-3 [8] = test: drug sensitivity score (DSS) for viability; higher = more toxic; extreme values may be limits of the assay
HepG2 [9] = test: as above
Vero E6 [10] = test: as above
U2OS [11] = test: as above
Caco-2 [12] = test: as above
U2OS [13] = test: relative viability EC50 (midpoint between 100% and the lowest measured viability); higher = less toxic
Caco-2 [14] = test: as above

SMILES	relative viability EC50 (Calu-3 [1])	relative viability EC50 (HepG2 [2])	cell viability (Calu-3 [3]; 1 nM)	cell viability (Calu-3 [3]; 10 nM)	cell viability (Calu-3 [3]; 100 nM)	cell viability (Calu-3 [3]; 1000 nM)	cell viability (Calu-3 [3]; 10000 nM)	cell viability (HepG2 [4]; 1 nM)	cell viability (HepG2 [4]; 10 nM)	cell viability (HepG2 [4]; 100 nM)	cell viability (HepG2 [4]; 1000 nM)	cell viability (HepG2 [4]; 10000 nM)	cell viability (Vero E6 [5]; 1 nM)	cell viability (Vero E6 [5]; 10 nM)	cell viability (Vero E6 [5]; 100 nM)	cell viability (Vero E6 [5]; 1000 nM)	cell viability (Vero E6 [5]; 10000 nM)	cell viability (U2OS [6]; 1 nM)	cell viability (U2OS [6]; 10 nM)	cell viability (U2OS [6]; 100 nM)	cell viability (U2OS [6]; 1000 nM)	cell viability (U2OS [6]; 10000 nM)	cell viability (Caco-2 [7]; 1 nM)	cell viability (Caco-2 [7]; 10 nM)	cell viability (Caco-2 [7]; 100 nM)	cell viability (Caco-2 [7]; 1000 nM)	cell viability (Caco-2 [7]; 10000 nM)	drug sensitivity score (Calu-3 [8])	drug sensitivity score (HepG2 [9])	drug sensitivity score (Vero E6 [10])	drug sensitivity score (U2OS [11])	drug sensitivity score (Caco-2 [12])	relative viability EC50 (U2OS [13])	relative viability EC50 (Caco-2 [14])
Cc1cc(N2CCOCC2)ccc1Nc1nc(NC2CCCCC2)c2nc[nH]c2n1	> 10 µM	0.455 µM	100%	98%	98.6%	98.4%	85%	99.1%	107%	98%	51.8%	43.5%	96.9%	99.6%	98.2%	60.1%	60.8%	97%	104%	101%	68%	55.4%	102%	104%	101%	88.5%	69.4%	0.4	9.1	7.4	6.1	2.9		
Cn1cc(-c2ccncc2)c(-c2ccc(OCc3ccc4ccccc4n3)cc2)n1	> 10 µM	> 10 µM	104%	105%	103%	98.9%	77.1%	105%	99.2%	108%	95.6%	91.5%						94%	101%	96.7%	94.6%	87.5%	91.1%	106%	90.5%	106%	67.2%	0.9	0		0	1.2	> 10 µM	
N#C/C(=C\c1ccc(O)c(O)c1)C(=O)NCCCCc1ccccc1 [AG-556]	> 10 µM		95.7%	101%	102%	110%	98.7%	93.3%	101%	97.8%	108%	71.1%	95.8%	95.6%	100%	95.9%	62.5%	98.5%	99%	94.7%	99%	75.8%	94%	94.2%	101%	101%	50.1%	0	0.9	2.5	1	2.5	> 10 µM	
Nc1ncnc2c1c(-c1cccc(OCc3ccccc3)c1)cn2[C@H]1C[C@@H](CN2CCC2)C1 [NVP-AEW541]		1 µM	112%	103%	99.4%	93.3%	57.2%	96.4%	93.6%	92.4%	68.1%	32.3%	100%	102%	99%	92.9%	69.6%	98.1%	97.9%	106%	86.6%	52.5%	99.8%	97%	94.5%	80.8%	45.1%	3.3	7.4	2.4	4.5	5.2		1.4 µM
CC(=O)N[C@@H](CC(C)C)C(=O)O [acetyl-l-leucine]		> 10 µM						95.8%	99.2%	98.4%	88.3%	94.7%						101%	99.9%	95.2%	101%	96.2%	95.7%	103%	85%	80.3%	96.6%		0		0	4.1	> 10 µM	> 10 µM
CN(C)CCN1C(=O)c2cccc3cc(N)cc(c23)C1=O [amonafide]		2.48 µM	94.8%	96.2%	99.3%	104%	65.1%	92.9%	108%	113%	93.6%	23.9%	97.8%	93.3%	95.9%	94.1%	54.8%	101%	92.7%	95%	100%	64.6%	99.9%	96.1%	97.9%	108%	69.7%	1.4	5.2	3.3	1.7	1		
O=C(CCCl)NCc1ccccc1 [beclamide]																												0	0	0	0			
Cc1c(N)nc([C@H](CC(N)=O)NC[C@H](N)C(N)=O)nc1C(=O)N[C@H](C(=O)N[C@H](C)[C@@H](O)[C@H](C)C(=O)N[C@H](C(=O)NCCc1nc(-c2nc(C(=O)NCCCNCCCCN)cs2)cs1)[C@@H](C)O)[C@@H](O[C@@H]1O[C@@H](CO)[C@@H](O)[C@H](O)[C@@H]1O[C@@H]1O[C@H](CO)[C@@H](O)[C@H](OC(N)=O)[C@@H]1O)c1cnc[nH]1 [bleomycetin]			94%	95.4%	93.1%	76.5%	51.3%	99.4%	104%	98.1%	82.7%	59.9%	106%	103%	106%	82.4%	64.2%	101%	97.7%	99.8%	83.3%	68.7%	106%	102%	100%	90.9%	78.7%	5.2	4	3.9	3.4	1.7		> 10 µM
O=C(CCCN1CCC(O)(c2ccc(Br)cc2)CC1)c1ccc(F)cc1 [bromperidol]																												0	0.8	0	0			
CN(CC(=O)O)C(=N)N [creatine]																												0	0		0			
CO[C@H]1C[C@H](O[C@H]2[C@H](C)O[C@@H](O[C@@H]3/C(C)=C/C[C@@H]4C[C@@H](C[C@]5(C=C[C@H](C)[C@@H](C6CCCCC6)O5)O4)OC(=O)[C@@H]4C=C(C)[C@@H](O)[C@H]5OC/C(=C\C=C\[C@@H]3C)[C@]54O)C[C@@H]2OC)O[C@@H](C)[C@@H]1O [doramectin]	> 10 µM	3.76 µM	102%	95.4%	105%	93.8%	75%	112%	104%	98.1%	108%	44.9%	103%	96.3%	91.1%	98.1%	72.4%	98.1%	95.7%	92.6%	88.5%	56.6%	102%	92.9%	93.9%	96.8%	62.5%	1.8	2.5	1.4	3.7	2.3		
COc1ccc2c(c1OC)C(=O)O[C@@H]2[C@H]1c2cc3c(cc2CCN1C)OCO3 [hydrastine-(1R,9S)]																												0	0	0	0			
C[N+]1(C)[C@@H]2C[C@@H](OC(=O)[C@H](CO)c3ccccc3)C[C@H]1[C@@H]1O[C@@H]12 [methscopolamine]																												0	0	0	0			
OCc1ccccc1O[C@@H]1O[C@H](CO)[C@@H](O)[C@H](O)[C@H]1O [salicin]																												0	0	0	0			
Cc1ncc([N+](=O)[O-])n1CC(C)O (stereo unspecified) [secnidazole]																												0.4	0	0	0			
CO[C@H]1C[C@@H]2CC[C@@H](C)[C@@](O)(O2)C(=O)C(=O)N2CCCC[C@H]2C(=O)O[C@H]([C@H](C)C[C@@H]2CC[C@@H](O)[C@H](OC)C2)CC(=O)[C@H](C)/C=C(\C)[C@@H](O)[C@@H](OC)C(=O)[C@H](C)C[C@H](C)/C=C/C=C/C=C/1C [sirolimus]	< 0.001 µM		65.3%	42.2%	42.6%	47.5%	47.3%	78.3%	63.9%	60.4%	66.1%	53.7%	92.3%	69.4%	58.6%	55.9%	60.6%	77%	57.9%	60.3%	55.8%	59.9%	72.7%	55.4%	56.8%	52%	54.2%	29	17.5	17.5	21.2	22.7		
